# Measured values: PubChem BioAssay AID330 (DTP/NCI, 2004)
# “And” between values parts separate entries of the source, which are not always exact repeats. Identical values can stand only once. Inconclusive results and toxic doses are left out.
# Tested on: P388 leukemia ip, CD2F1 mice, survival T/C
# Test: NCI In Vivo Anticancer Drug Screen. Data for tumor model P388 Leukemia (intraperitoneal) in CD2F1 (CDF1) mice
# Details: endpoint: median survival time, higher = longer survival
# In short: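 Mice carrying the transplanted tumor received test compound or vehicle. Survival was recorded in each group, and the value is the treated-group measurement divided by that of the vehicle-treated control group.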
# [1] = dose: 6.25 mg/kg/injection, schedule: Q01DX005 (ip), vehicle: saline with Tween-80
# [2] = dose: 12.5 mg/kg/injection, schedule: Q01DX005 (ip), vehicle: saline with Tween-80
# [3] = dose: 25.0 mg/kg/injection, schedule: Q01DX005 (ip), vehicle: saline with Tween-80
# [4] = dose: 50.0 mg/kg/injection, schedule: Q01DX005 (ip), vehicle: saline with Tween-80
# [5] = dose: 100.0 mg/kg/injection, schedule: Q01DX005 (ip), vehicle: saline with Tween-80
# [6] = dose: 60.0 mg/kg/injection, schedule: Q01DX005 (ip), vehicle: saline with Tween-80
# [7] = dose: 120.0 mg/kg/injection, schedule: Q01DX005 (ip), vehicle: saline with Tween-80
# [8] = dose: 240.0 mg/kg/injection, schedule: Q01DX005 (ip), vehicle: saline with Tween-80
# [9] = dose: 12.5 mg/kg/injection, schedule: Q01DX009 (ip), vehicle: saline
# [10] = dose: 25.0 mg/kg/injection, schedule: Q01DX009 (ip), vehicle: saline
# [11] = dose: 50.0 mg/kg/injection, schedule: Q01DX009 (ip), vehicle: saline
smiles,measurement,setting,value
CCN(CC)C1=CC(=O)OC1OC (centres undefined),T/C,"dose: 60.0 mg/kg/injection, schedule: Q01DX005 (ip), vehicle: saline",95 % of control
same,T/C,"dose: 120.0 mg/kg/injection, schedule: Q01DX005 (ip), vehicle: saline",94 % of control
COc1cc2oc3c(C)c(=O)cc4oc(-c5ccccc5)cc(c2c2c1CCC(c1ccccc1)O2)c43 (centres undefined),T/C,[1],106 % of control
same,T/C,"dose: 7.0 mg/kg/injection, schedule: Q01DX005 (ip), vehicle: Klucel (hydroxypropylcellulose) (HPC)",116 % of control and 211 % of control
same,T/C,[2],106 % of control
same,T/C,"dose: 14.0 mg/kg/injection, schedule: Q01DX005 (ip), vehicle: Klucel (hydroxypropylcellulose) (HPC)",98 % of control
same,T/C,[3],121 % of control
same,T/C,[4],124 % of control
same,T/C,[5],114 % of control
Cc1ccc2ncc(C)c(/C=C/c3ccc(N(C)C)cc3)c2c1,T/C,"dose: 50.0 mg/kg/injection, schedule: Q01DX001 (ip), vehicle: saline with Tween-80",108 % of control
same,T/C,"dose: 100.0 mg/kg/injection, schedule: Q01DX001 (ip), vehicle: saline with Tween-80",112 % of control
same,T/C,"dose: 200.0 mg/kg/injection, schedule: Q01DX001 (ip), vehicle: saline with Tween-80",122 % of control
COC1CC(OC2CCC3(C)C(CCC45CCC(C6=CC(=O)OC6)C(C)(CCC43)C5=O)C2)OC(C)C1O (centres undefined),T/C,"dose: 1.56 mg/kg/injection, schedule: Q01DX005 (ip), vehicle: Klucel (hydroxypropylcellulose) (HPC)",90 % of control
same,T/C,"dose: 3.12 mg/kg/injection, schedule: Q01DX005 (ip), vehicle: Klucel (hydroxypropylcellulose) (HPC)",97 % of control
same,T/C,"dose: 6.25 mg/kg/injection, schedule: Q01DX005 (ip), vehicle: Klucel (hydroxypropylcellulose) (HPC)",100 % of control
same,T/C,"dose: 12.5 mg/kg/injection, schedule: Q01DX005 (ip), vehicle: Klucel (hydroxypropylcellulose) (HPC)",88 % of control and 91 % of control
O=C([O-])CC(=O)[O-].[Cu+2].c1ccc(-c2ccccn2)nc1,T/C,[1],101 % of control
same,T/C,[2],99 % of control
same,T/C,[3],108 % of control
CCC1SC(=S)NC1=O (centres undefined),T/C,[4],92 % of control
same,T/C,[5],92 % of control
N#Cc1c(-c2ccccc2)c(-c2ccccc2)nn(CCO)c1=O,T/C,"dose: 25.0 mg/kg/injection, schedule: Q04DX002 (ip), vehicle: distilled water + Tween-80",94 % of control
same,T/C,"dose: 50.0 mg/kg/injection, schedule: Q04DX002 (ip), vehicle: distilled water + Tween-80",103 % of control
same,T/C,"dose: 100.0 mg/kg/injection, schedule: Q04DX002 (ip), vehicle: distilled water + Tween-80",108 % of control
same,T/C,"dose: 200.0 mg/kg/injection, schedule: Q04DX002 (ip), vehicle: distilled water + Tween-80",110 % of control
COc1ccc(N=c2nc3n4c(c(Br)cc(Br)c4n2)NC(C(Br)(Br)Br)=N3)cc1,T/C,[6],90 % of control
same,T/C,[7],92 % of control
same,T/C,[8],100 % of control
CC1=N[C@@H](C(=O)NCC(N)=O)Cc2c1[nH]c1ccccc21,T/C,[6],98 % of control
same,T/C,[7],93 % of control
same,T/C,[8],93 % of control
O=C(O)CCC(=O)NC1C(NNC(=O)c2cccnc2)OC(CO)C(O)C1O (centres undefined),T/C,[4],101 % of control
same,T/C,[5],95 % of control
same,T/C,"dose: 200.0 mg/kg/injection, schedule: Q01DX005 (ip), vehicle: saline with Tween-80",101 % of control
O=C1OCC2C1Cc1cc(O)c(O)cc1C2c1ccc(O)c(O)c1 (centres undefined),T/C,"dose: 100.0 mg/kg/injection, schedule: Q01DX009 (ip), vehicle: Klucel (hydroxypropylcellulose) (HPC)",94 % of control
same,T/C,"dose: 200.0 mg/kg/injection, schedule: Q01DX009 (ip), vehicle: Klucel (hydroxypropylcellulose) (HPC)",92 % of control
same,T/C,"dose: 400.0 mg/kg/injection, schedule: Q01DX009 (ip), vehicle: Klucel (hydroxypropylcellulose) (HPC)",111 % of control
CC(CNC(=O)CCOS(C)(=O)=O)CNC(=O)CCOS(C)(=O)=O,T/C,"dose: 6.25 mg/kg/injection, schedule: Q01DX009 (ip), vehicle: saline",105 % of control
same,T/C,[9],106 % of control
same,T/C,[10],100 % of control
same,T/C,[11],102 % of control
c1ccc(-n2ccnc2C2C3CCN2CC3)cc1 (centres undefined),T/C,[9],104 % of control
same,T/C,[10],104 % of control
same,T/C,[11],111 % of control and 97 % of control
